Drawing on paper PMC6968521, “Novel CDKs inhibitors for the treatment of solid tumour by simultaneously regulating the cell cycle and transcription control” (Journal of Enzyme Inhibition and Medicinal Chemistry, 2020), this text covers inhibition and IC50 for 22 compounds.

One test deals with T1, CDK4 (Homo sapiens, UniProt P11802).
T1 construct: purchased Eurofins (KinaseProfiler service)
Kind of test: Kinase inhibition assay (KinaseProfiler, Eurofins), CDK4. The class given is biochemical. Conditions: for IC50: ATP at Km, mean of two independent experiments. Here is the method: (§1) Kinase inhibition profiles were determined using KinaseProfiler services provided by Eurofins, and ATP concentrations used the Km of corresponding kinases.

The next test addresses T2, CDK6 (Homo sapiens, UniProt Q00534).
T2 construct: purchased Eurofins (KinaseProfiler service)
Kind of test: Kinase inhibition assay (KinaseProfiler, Eurofins), CDK6. The class given is biochemical. Conditions: for IC50: ATP at Km, mean of two independent experiments. How it is done:
as §1

Another test concerns the target T3, CDK9 (Homo sapiens, UniProt P50750).
T3 construct: purchased Eurofins (KinaseProfiler service)
Kind of test: Kinase inhibition assay (KinaseProfiler, Eurofins), CDK9. Conditions: for IC50: ATP at Km, mean of two independent experiments. Format: biochemical. Here is the method: as §1

A further test relates to 4T1 breast cancer cells. Kind of test: CCK-8 cytotoxicity assay, 4T1. The class given is cell-based. Conditions: CCK-8, 72 h incubation, three independent experiments; read-out: In vitro cell growth inhibition IC50, 4T1. How it is done:
(§2) All the human cancer cell lines were obtained from ATCC. Cells were cultured in RPMI-1640 (BioInd) medium according to the instructions from ATCC, with the medium containing 10% FBS (BioInd), 1% antibiotics (penicillin and streptomycin) at 37 °C in an atmosphere of 5% CO2.
(§3) Cytotoxicity assay were conducted as described previously using a Cell Counting Kit-8 (CCK-8) assay (#CK04, Dojindo, Kumamoto, Japan)[37].

A further test relates to T-47D cells. Kind of test: CCK-8 cytotoxicity assay, T-47D. The following applies: Homo sapiens, T47D; CCK-8, 72 h incubation, three independent experiments; read-out: In vitro cell growth inhibition IC50, T-47D. Format: cell-based. Here is the method: as §2, §3
A further test deals with MCF7 cells. Kind of test: CCK-8 cytotoxicity assay, MCF7. Format: cell-based. The following applies: Homo sapiens, CCK-8, 72 h incubation, three independent experiments, read-out: In vitro cell growth inhibition IC50, MCF7. Here is the method:
as §2, §3
Background: Formazan colour is commonly taken as a measure of viable cells.

Another test has as its system A549 cells. Kind of test: CCK-8 cytotoxicity assay, A549. The class given is cell-based. The following applies: Homo sapiens, CCK-8, 72 h incubation, three independent experiments, read-out: In vitro cell growth inhibition IC50, A549. Here is the method:
as §2, §3

In another test the test system is H460 cells. Kind of test: CCK-8 cytotoxicity assay, H460. Format: cell-based. The following applies: Homo sapiens, NCI-H460; CCK-8, 72 h incubation, three independent experiments; read-out: In vitro cell growth inhibition IC50, H460. How it is done:
as §2, §3

A further test concerns H1299 cells. Kind of test: CCK-8 cytotoxicity assay, H1299. Format: cell-based. The following applies: Homo sapiens, NCI-H1299; CCK-8, 72 h incubation, three independent experiments; read-out: In vitro cell growth inhibition IC50, H1299. How it is done:
as §2, §3

Several values for one entry are separate records, joined by “and”; a condition that tells them apart may be missing. Equal entries are not always repeated.

T1 sequence (P11802 whole entry): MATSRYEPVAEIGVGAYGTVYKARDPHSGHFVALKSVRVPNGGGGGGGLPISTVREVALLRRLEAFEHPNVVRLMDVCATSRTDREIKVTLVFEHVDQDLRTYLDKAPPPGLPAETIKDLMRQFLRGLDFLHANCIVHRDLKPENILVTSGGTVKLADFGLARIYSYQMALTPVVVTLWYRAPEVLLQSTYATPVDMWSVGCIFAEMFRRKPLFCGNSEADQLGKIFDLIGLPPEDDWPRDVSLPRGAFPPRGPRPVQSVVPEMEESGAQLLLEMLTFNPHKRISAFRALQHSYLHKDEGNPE
T1 sequence (P30281 whole entry partner): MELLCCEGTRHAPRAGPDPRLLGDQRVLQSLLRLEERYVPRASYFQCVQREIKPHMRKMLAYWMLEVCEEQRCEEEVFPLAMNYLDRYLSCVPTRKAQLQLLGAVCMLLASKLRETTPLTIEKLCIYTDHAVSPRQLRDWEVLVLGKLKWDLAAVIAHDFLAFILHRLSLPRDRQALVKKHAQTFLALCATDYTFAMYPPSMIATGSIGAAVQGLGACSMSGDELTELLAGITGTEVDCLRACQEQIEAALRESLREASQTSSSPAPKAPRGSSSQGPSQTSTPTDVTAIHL
T2 sequence (Q00534 whole entry): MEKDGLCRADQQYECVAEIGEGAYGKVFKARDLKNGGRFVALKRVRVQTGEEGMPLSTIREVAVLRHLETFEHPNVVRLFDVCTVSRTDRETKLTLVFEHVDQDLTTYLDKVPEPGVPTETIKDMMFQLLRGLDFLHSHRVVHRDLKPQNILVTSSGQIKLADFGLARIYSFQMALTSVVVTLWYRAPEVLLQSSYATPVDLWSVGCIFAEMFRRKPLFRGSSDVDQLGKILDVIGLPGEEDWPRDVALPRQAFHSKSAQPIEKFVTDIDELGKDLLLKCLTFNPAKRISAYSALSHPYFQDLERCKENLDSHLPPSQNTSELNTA
T2 sequence (P30281 whole entry partner): as the sequence (P30281 whole entry partner) above
T3 sequence (P50750 whole entry): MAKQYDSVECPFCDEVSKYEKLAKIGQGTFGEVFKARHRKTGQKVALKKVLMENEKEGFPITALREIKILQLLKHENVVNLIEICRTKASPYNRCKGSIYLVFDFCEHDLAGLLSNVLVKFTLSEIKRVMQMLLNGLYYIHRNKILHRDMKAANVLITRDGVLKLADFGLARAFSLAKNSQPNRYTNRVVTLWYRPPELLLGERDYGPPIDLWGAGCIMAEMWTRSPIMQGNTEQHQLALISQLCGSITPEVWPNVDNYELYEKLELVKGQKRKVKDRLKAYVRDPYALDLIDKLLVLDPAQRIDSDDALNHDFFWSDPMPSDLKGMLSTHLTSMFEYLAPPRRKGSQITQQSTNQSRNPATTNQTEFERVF
T3 sequence (O60563 whole entry partner): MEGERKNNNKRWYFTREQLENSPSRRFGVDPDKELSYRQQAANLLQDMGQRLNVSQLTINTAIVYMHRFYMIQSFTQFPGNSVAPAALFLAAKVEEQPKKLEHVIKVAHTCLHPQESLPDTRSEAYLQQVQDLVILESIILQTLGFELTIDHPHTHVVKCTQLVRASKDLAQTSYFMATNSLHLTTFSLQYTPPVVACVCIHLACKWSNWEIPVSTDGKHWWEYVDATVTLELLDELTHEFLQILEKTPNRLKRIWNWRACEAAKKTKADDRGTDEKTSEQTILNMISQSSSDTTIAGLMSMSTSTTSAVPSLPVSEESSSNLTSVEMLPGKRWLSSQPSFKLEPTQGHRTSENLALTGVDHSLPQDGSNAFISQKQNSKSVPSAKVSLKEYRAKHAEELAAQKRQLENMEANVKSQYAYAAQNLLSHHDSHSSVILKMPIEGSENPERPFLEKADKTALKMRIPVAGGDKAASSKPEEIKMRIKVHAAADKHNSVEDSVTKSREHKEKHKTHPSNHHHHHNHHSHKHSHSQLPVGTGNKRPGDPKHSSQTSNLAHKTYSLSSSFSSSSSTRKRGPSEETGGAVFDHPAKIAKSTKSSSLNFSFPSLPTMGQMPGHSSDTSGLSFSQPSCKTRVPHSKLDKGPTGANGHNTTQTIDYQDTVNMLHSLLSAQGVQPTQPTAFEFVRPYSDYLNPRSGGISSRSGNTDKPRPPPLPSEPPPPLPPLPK

As to `CN(C)C(=O)c1cc2cnc(Nc3ccc(SCCCCCN=C=S)cc3)nc2n1C1CCCC1` [X1], the results for the inhibition at 1 µM against CDK4, against CDK6 and against CDK9 were 35 ± 0.5%, 63 ± 1.2% and 76%, respectively.
For `Cc1cc(SCCCCCN=C=S)ccc1Nc1ncc2cc(C(=O)N(C)C)n(C3CCCC3)c2n1` [X2], the figures for the inhibition at 1 µM against CDK4, on CDK6 and on CDK9 were 29 ± 2.1%, 17 ± 1.2% and 80%, respectively.
In the same order, the values of `COc1cc(SCCCCCN=C=S)ccc1Nc1ncc2cc(C(=O)N(C)C)n(C3CCCC3)c2n1` [X3] are 8 ± 2.1%, 5 ± 0.8% and 33 ± 2.5%.
In the same order, the values of `CN(C)C(=O)c1cc2cnc(Nc3ccc(SCCCCCN=C=S)cc3C(F)(F)F)nc2n1C1CCCC1` [X4] are 9 ± 1.6%, 8 ± 3.3% and 41 ± 0.8%.
Consider `CN(C)C(=O)c1cc2cnc(Nc3ccc([S+]([O-])CCCCCN=C=S)cc3C(F)(F)F)nc2n1C1CCCC1` (stereo not drawn) [X5], for which the results for the inhibition at 1 µM against CDK4, against CDK6 and against CDK9 were 91 ± 0.8%, 48 ± 1.2% and 97 ± 0.4%, respectively. The results for the IC50 on CDK4 and at CDK9 were 0.331 ± 0.0333 µM and 0.034 ± 0.0053 µM, respectively.
On to `CN(C)C(=O)c1cc2cnc(Nc3ccc(S(=O)(=O)CCCCCN=C=S)cc3C(F)(F)F)nc2n1C1CCCC1` [X6], for which the inhibition (usually the share of the control response that was lost under treatment) at 1 µM is 35 ± 2.4% against CDK4, 14 ± 1.2% on CDK6 and 75 ± 0.4% on CDK9.
On to `CN(C)C(=O)c1cc2cnc(Nc3ccc([S+]([O-])CCCCCN=C=S)cc3)nc2n1C1CCCC1` (stereo not drawn) [X7], for which the inhibition at 1 µM was found to be 99% at CDK4, 87 ± 1.6% against CDK6 and 99% against CDK9. The IC50 (commonly the midpoint of a concentration-inhibition curve) is 0.007 µM and 0.026 µM at CDK4; 0.026 µM and 0.007 µM on CDK9; 0.41 ± 0.1 µM with 4T1 breast cancer cells; 0.1 ± 0.02 µM in the test on T-47D cells; 0.23 ± 0.04 µM in the test on MCF7 cells; 0.67 ± 0.03 µM in the test on A549 cells. For the same compound, the figures for the IC50 in the test on H460 cells and in the test with H1299 cells were 0.92 ± 0.15 µM and 1.15 ± 0.1 µM, respectively.
As for `CN(C)C(=O)c1cc2cnc(Nc3ccc(SCCCN=C=S)cc3)nc2n1C1CCCC1` [X8], the results for the inhibition at 1 µM against CDK4, on CDK6 and against CDK9 were 70 ± 2.4%, 64 ± 0.8% and 97 ± 0.4%, respectively. Also, the IC50 turned out to be 0.016 µM at CDK9; 1.46 ± 0.34 µM in the test on 4T1 breast cancer cells; 0.41 ± 0.1 µM in the test on T-47D cells; 1.33 ± 0.15 µM in the test with MCF7 cells; 3.07 ± 0.11 µM in the test with A549 cells; 3.22 ± 0.22 µM in the test with H460 cells. Besides, in the test on H1299 cells, the IC50 came out at 3.79 ± 0.07 µM.
For the compound `CN(C)C(=O)c1cc2cnc(Nc3ccc(S(=O)(=O)CCCN=C=S)cc3)nc2n1C1CCCC1` [X9], the inhibition at 1 µM was determined as 94 ± 1.6% on CDK4, 92 ± 1.2% against CDK6 and 97% on CDK9. Besides, the figures for the IC50 against CDK4, on CDK6 and against CDK9 were 0.043 ± 0.0026 µM, 0.101 ± 0.0047 µM and 0.004 ± 0.0004 µM, respectively.
In the case of `CN(C)C(=O)c1cc2cnc(Nc3ccc(S(=O)(=O)CCCCN=C=S)cc3)nc2n1C1CCCC1` [X10], the inhibition at 1 µM stood at 90 ± 0.8% against CDK4, 88 ± 0.8% against CDK6 and 98 ± 0.4% against CDK9. Moreover, the IC50 against CDK4 was found to be 0.09 ± 0.0105 µM; against CDK9, 0.007 ± 0.0008 µM.
On to `CN(C)C(=O)c1cc2cnc(Nc3ccc(S(=O)(=O)CCCCCN=C=S)cc3)nc2n1C1CCCC1` [X11], for which the figures for the inhibition at 1 µM against CDK4, at CDK6 and against CDK9 were 89 ± 0.4%, 82 ± 0.8% and 98 ± 0.4%, respectively. At CDK9, 0.008 ± 0.0008 µM corresponded to half-maximal inhibition (IC50).
For `CN(C)C(=O)c1cc2cnc(Nc3ccc(S(=O)(=O)CCCCCCN=C=S)cc3)nc2n1C1CCCC1` [X12], the results for the inhibition at 1 µM against CDK4, against CDK6 and against CDK9 were 83%, 75 ± 0.4% and 97 ± 0.4%, respectively. The IC50 came to 0.013 ± 0.0018 µM at CDK9; 0.46 ± 0.07 µM in the test with 4T1 breast cancer cells; 0.16 ± 0.02 µM in the test with T-47D cells; 0.57 ± 0.24 µM in the test on MCF7 cells; 1.57 ± 0.07 µM in the test on A549 cells; 2.79 ± 0.32 µM in the test on H460 cells. In addition, the IC50 with H1299 cells was found to be 1.31 ± 0.06 µM.
Consider `CN(C)C(=O)c1cc2cnc(Nc3ccc(S(=O)(=O)CCCCCCCN=C=S)cc3)nc2n1C1CCCC1` [X13], for which the inhibition at 1 µM is 74% against CDK4, 68 ± 0.4% on CDK6 and 96 ± 0.4% against CDK9. The compound further came in with an IC50 on CDK9 of 0.024 ± 0.0031 µM.
Consider `CN(C)C(=O)c1cc2cnc(Nc3ccc(CSCCCN=C=S)cc3)nc2n1C1CCCC1` [X14], for which the inhibition at 1 µM against CDK4 worked out at 95%; at CDK6, 86 ± 1.2%; at CDK9, 97 ± 0.4%. Further, the results for the IC50 on CDK4 and against CDK9 were 0.079 ± 0.0013 µM and 0.016 ± 0.0028 µM, respectively.
For `CN(C)C(=O)c1cc2cnc(Nc3ccc(CSCCCCN=C=S)cc3)nc2n1C1CCCC1` [X15], the inhibition at 1 µM on CDK4 is 83 ± 0.8%; against CDK6 it was 76 ± 0.8%; against CDK9 it was 96%. For the same compound, it took 0.029 ± 0.0014 µM to reach half-maximal inhibition against CDK9 (IC50).
In the same order, the values of `CN(C)C(=O)c1cc2cnc(Nc3ccc(CSCCCCCN=C=S)cc3)nc2n1C1CCCC1` [X16] are 71 ± 0.8%, 73%, 94 ± 0.4% and 0.034 ± 0.0014 µM.
In the same order, the values of `CN(C)C(=O)c1cc2cnc(Nc3ccc(CSCCCCCCN=C=S)cc3)nc2n1C1CCCC1` [X17] are 61 ± 2.1%, 52 ± 0.4%, 94 ± 1.6% and 0.055 ± 0.0022 µM.
In the same order, the values of `CN(C)C(=O)c1cc2cnc(Nc3ccc(CSCCCCCCCN=C=S)cc3)nc2n1C1CCCC1` [X18] are 82 ± 1.2%, 52 ± 0.8%, 95 ± 0.4% and 0.042 ± 0.0016 µM.
For the compound `CN(C)C(=O)c1cc2cnc(Nc3ccc(CS(=O)(=O)CCCN=C=S)cc3)nc2n1C1CCCC1` [X19], the results for the inhibition at 1 µM at CDK4, at CDK6 and against CDK9 were 98%, 94 ± 0.8% and 98 ± 0.4%, respectively. Besides, the IC50 at CDK4 came to 0.017 ± 0.0007 µM; against CDK6, 0.055 ± 0.0016 µM; at CDK9 it was 0.006 ± 0.0004 µM; in the test on 4T1 breast cancer cells, 0.69 ± 0.14 µM; with T-47D cells it was 0.72 ± 0.03 µM; in the test with MCF7 cells, 0.16 ± 0.06 µM. Besides, the IC50 is 1.46 ± 0.28 µM in the test with A549 cells, 1.45 ± 0.1 µM in the test with H460 cells and 0.6 ± 0.04 µM in the test with H1299 cells.
Regarding `CN(C)C(=O)c1cc2cnc(Nc3ccc(CS(=O)(=O)CCCCN=C=S)cc3)nc2n1C1CCCC1` [X20], the inhibition at 1 µM against CDK4 amounted to 99 ± 0.4%; against CDK6 it was 94 ± 0.4%; against CDK9, 98 ± 0.4%. Besides, the IC50 turned out to be 0.021 ± 0.0014 µM at CDK4; 0.042 ± 0.0054 µM on CDK6; 0.007 ± 0.001 µM against CDK9; 0.26 ± 0.19 µM with 4T1 breast cancer cells; 0.12 ± 0.01 µM in the test on T-47D cells; 0.12 ± 0.07 µM in the test on MCF7 cells. In addition, the half-inhibitory concentration (IC50) stood at 0.38 ± 0.02 µM in the test with A549 cells, 1.5 ± 0.39 µM in the test on H460 cells and 0.6 ± 0.24 µM with H1299 cells.
`CN(C)C(=O)c1cc2cnc(Nc3ccc(CS(=O)(=O)CCCCCN=C=S)cc3)nc2n1C1CCCC1` [X21]: the inhibition at 1 µM turned out to be 98 ± 0.4% on CDK4, 93% against CDK6 and 98% against CDK9. The concentration for half-maximal inhibition (IC50) against CDK4 was 0.024 ± 0.0009 µM; against CDK6 it was 0.078 ± 0.0134 µM; against CDK9, 0.007 ± 0.0006 µM.
Turning to `CN(C)C(=O)c1cc2cnc(Nc3ccc(CS(=O)(=O)CCCCCCCN=C=S)cc3)nc2n1C1CCCC1` [X23], the inhibition at 1 µM against CDK4 was 95 ± 0.5%; against CDK6, 77 ± 1.6%; at CDK9, 97%. The IC50 on CDK4 turned out to be 0.075 ± 0.01 µM; at CDK9 it was 0.014 ± 0.0009 µM.
